According to US20230414632A1, “INHIBITION OF THE HIV-1 REPLICATION BY COMPOUNDS DIRECTED AGAINST A NEW TARGET OF THE VIRAL CYCLE” (priority 2020, published 2023):

Key:
[1] = target: interaction between the HIV-1 integrase (IN) and the catalytic domain of the human mitochondrial lysyl-tRNA synthetase (mLysRS) (Homo sapiens (Human), UniProt P12497+Q15046); assay: HTRF assay of the mLysRS:IN interaction; format: binding, HIV-1 / human; details: compound from 17 to 666 μM
Procedure: Experiments were performed on the interaction between the HIV-1 integrase (IN) and the catalytic domain of the human mitochondrial lysyl-tRNA synthetase (mLysRS), which constitutes the main contribution to the Gag Pol:mLysRS interaction.
Homogeneous time-resolved fluorescence (HTRF) assays were performed in black, half-area, flat bottom, 96-well microplates (Costar #3694). Human mitochondrial LysRS with a C-terminal HA-tag (mLysRS-HA), diluted in HTRF buffer (10 mM Tris-HCl pH 7.5, 50 mM NaCl, 10 mM 2-mercaptoethanol, BSA at 1 mg/ml) was added (20 μl at a dimer concentration of 3.75 nM) in the wells of microplates placed on ice. Compounds of formula I or II (1 μl of a 10 mM solution in DMSO) were then added to the wells, and mixing was achieved by pipetting up and down 3-times 10 μl. […]
A 10 μl solution of KF prepared in HTRF buffer at a concentration of 250 mM was then added and mixing was achieved by pipetting up and down 3-times 20 μl. After centrifugation at 900 g for 3 min at 4° C., fluorescence of Eu^3+ cryptate and of XL665 was recorded at 620 nm (I620) and 665 nm (I665), respectively, after excitation of Eu^3+ cryptate at 317 nm, in an Infinite M1000 PRO microplate reader (TECAN). Results are expressed as the ratio of I665/I620. The HTRF signal corresponds to the ratio of fluorescence at 665 and 620 nm (I665/I620). […]

MT4 cells = assay: Cell survival / cellular toxicity in infected MT4 cells (flow cytometry); format: cell-based; details: up to 10 μM compound, day 5, MT4 cells
Procedure: For HIV-1 gfp+ vectors, viral replication is followed by GFP expression [i.e. the percentage and geometric mean fluorescence intensity (MFI) of GFP^+ cells]. Infectivity was estimated by flow cytometry using a FACSCalibur™ cytofluorometer (BD Biosciences). Toxicity is also assessed by flow cytometry (side and forward scatter).
At J0 (day zero) MT4 cells was used for infection with HIV gfp+ virus at multiplicity of infection (m.o.i.) reaching 0.1-0.2 (50 ng of p24^gag antigen per 10^6 cells). Two days post-infection (J2), MT4 cells are washed extensively (3 times with PBS) and resuspended using fresh RPMI medium (2×10^5 cells per ml) and plated into 6 well plates (2 ml per well) in the presence of compounds of formula I or II at various molecules concentrations. A control not infected with the virus (MT4 Ninf), or brought into contact with DMSO (inf DMSO, the solvent of compounds of formula I or II), or with dolutegravir (DTG) at 100 nM, a known inhibitor of the integrase, are conducted in parallel. At time J5 (day five), cells are then collected for cytometry analysis to quantify the production of viral particles and cell survival.

[2] = system: HIV-1 gfp+ virus in MT4 cells; assay: Ex-vivo inhibition of HIV-1 replication (multi-cycle, HIV-1 gfp+ in MT4 cells, flow cytometry); format: cell-based; details: 10 μM compound, day 5, MT4 cells infected with HIV gfp+
Procedure: Ability of compounds of formula I or II to inhibit the HIV-1 replicative cycle ex vivo was conducted by methods commonly used in antiretroviral pharmacology.
MT4 cell line (Charneau et al. J. Virol. 1992, 66:2814) were maintained in RPMI 1640. HEK293T were maintained in Dulbecco's Modified Eagle Medium (DMEM). All media were supplemented with Glutamax and with 10% heat-inactivated fetal calf serum (Hyclone) and 1% penicillin/streptomycin (100 units/mL) (Gibco). All media were purchased from Gibco (Life Technologies Co.). All cell lines used here were incubated at 37° C., under 5% CO2 atmosphere. […]
For HIV-1 gfp+ vectors, viral replication is followed by GFP expression [i.e. the percentage and geometric mean fluorescence intensity (MFI) of GFP^+ cells]. […] Toxicity is also assessed by flow cytometry (side and forward scatter).
At J0 (day zero) MT4 cells was used for infection with HIV gfp+ virus at multiplicity of infection (m.o.i.) reaching 0.1-0.2 (50 ng of p24^gag antigen per 10^6 cells). […] At time J5 (day five), cells are then collected for cytometry analysis to quantify the production of viral particles and cell survival.

interaction between the HIV-1 integrase (IN) and the catalytic domain of the human mitochondrial lysyl-tRNA synthetase (mLysRS), sequence (Q15046 whole entry, looked up, other chains not shown, the tested form may be a part): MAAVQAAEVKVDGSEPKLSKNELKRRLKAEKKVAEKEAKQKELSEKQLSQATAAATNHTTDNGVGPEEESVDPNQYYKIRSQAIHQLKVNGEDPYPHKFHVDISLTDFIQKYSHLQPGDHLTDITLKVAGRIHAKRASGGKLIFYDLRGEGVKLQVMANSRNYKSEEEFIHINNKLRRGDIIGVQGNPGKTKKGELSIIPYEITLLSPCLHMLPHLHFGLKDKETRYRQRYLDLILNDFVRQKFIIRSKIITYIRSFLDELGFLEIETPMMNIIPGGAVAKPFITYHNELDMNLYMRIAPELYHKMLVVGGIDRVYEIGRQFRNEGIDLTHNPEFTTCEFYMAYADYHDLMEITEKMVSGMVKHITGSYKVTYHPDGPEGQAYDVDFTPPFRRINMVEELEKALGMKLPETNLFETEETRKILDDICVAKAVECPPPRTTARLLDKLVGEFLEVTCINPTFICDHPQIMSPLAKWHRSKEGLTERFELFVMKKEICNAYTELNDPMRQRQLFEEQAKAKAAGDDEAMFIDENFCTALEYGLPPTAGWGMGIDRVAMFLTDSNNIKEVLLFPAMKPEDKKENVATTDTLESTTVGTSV

Row | Compound | IC50 [1] | cellular toxicity (MT4 cells) | production of viral particles [2]
1 | CC1=C(C(=O)OC(C)C)C(c2cccc([N+](=O)[O-])c2)C(C(=O)OC2CN(C(c3ccccc3)c3ccccc3)C2)=C(N)N1 (stereo not drawn) [I-d] | 400 ± 150 µM | – | –
2 | CCOC(=O)C1=C(C)NC(C)=C(C(=O)OCC)C1c1ccccc1/C=C/C(=O)OC(C)(C)C [I-a] | – | no cellular toxicity has been observed | –
3 | CN1CCCC(n2nc(Cc3ccc(Cl)cc3)c3ccccc3c2=O)CC1 (stereo not drawn) [II-a] | 300 ± 50 µM | no cellular toxicity has been observed | greatly reduced
4 | COCCOC(=O)C1=C(C)NC(C)=C(C(=O)OC/C=C/c2ccccc2)C1c1cccc([N+](=O)[O-])c1 (stereo not drawn) [I-b] | – | no cellular toxicity has been observed | –
